From patent US8183256B2, “Remedy or preventive for integration dysfunction syndrome” (Toray Industries, Inc., priority 2008, dated 2012)

Key:
[1] = system: PCP-induced hyperlocomotion; experiment: Mouse PCP-induced hyperlocomotion; type: in vivo; details: ddy male mice, PCP 10 mg/kg s.c.
[2] = system: Prepulse Inhibition (PPI); experiment: Startle response in rat prepulse inhibition (PPI) model; type: in vivo; details: SD male rats
Excerpt: Further, the fact that there is no risk, in the above-described compound or a pharmaceutically acceptable acid addition salt thereof, of causing impaired information processing related to cognitive deficiencies which is a symptom of schizophrenia can be confirmed by investigating the effect of the compound on the phenomenon wherein the startle response to a startle stimulus (pulse) in an animal is inhibited by presentation of a weak stimulus (prepulse) prior to presentation of a startle stimulus (pulse) (Prepulse Inhibition, PPI) according to the method described in Bio. Psychiatry., 57, 1550, 2005. In this method, inhibition of PPI indicates abnormality in information processing, and is known to reflect cognitive deficiencies, which is a symptom of schizophrenia, and the like.
In the experiments, 8 SD male rats of 9 to 10 weeks old were used per each group. The measurement was carried out using an apparatus for measuring startle responses of small animals (San Diego Instruments). […]

CN(C(=O)/C=C/c1ccoc1)[C@@H]1CC[C@@]2(O)[C@H]3Cc4ccc(O)c5c4[C@@]2(CCN3CC2CC2)[C@H]1O5.Cl [Compound 1, (−)-17-(Cyclopropylmethyl)-3,14β-Dihydroxy-4,5α-Epoxy-6β-[N-Methyl-Trans-3-(3-Furyl)Acrylamido]Morphinan Hydrochloric Acid Salt]
dose statistically significantly inhibiting PCP-induced hyperlocomotion ([1]; test compound s.c. 1 minute before PCP, locomotor counts, vs vehicle-administered group): ≥ 0.01 mg/kg
effect on PPI (% Prepulse Inhibition) ([2]; 0.03 mg/kg s.c., 30 minutes before stimulation session, 80 dB prepulse, 120 dB pulse): did not inhibit PPI

C=C1CC[C@@]2(O)[C@H]3Cc4ccc(O)c5c4[C@@]2(CCN3CC2CC2)[C@H]1O5 [Nalmefene]
effect on the amount of locomotion (PCP-induced hyperlocomotion) ([1]; test compound at 10 mg/kg s.c.): did not have any effect

c1ccc(C2(N3CCCCC3)CCCCC2)cc1 [Phencyclidine]
effect on PPI (% Prepulse Inhibition) ([2]; positive control at 4 mg/kg, p<0.05 against the vehicle-administered group): statistically significant inhibitory effect on PPI
